In patent US9358266B2, “Treatment of sepsis using complement inhibitors” (The Trustees of the University of Pennsylvania, priority 2010, dated 2016):

Legend:
complement [1] = assay: Complement activation in LD100 model of E. coli sepsis in baboons; format: in vivo, Papio cyanocephalus; conditions: for % Complement Activation at T+120 min: untreated avg. 2.8
Procedure: (§1) Reagents, Compstatin analog and live E. coli organisms were obtained or prepared as described in Example 1. Papio cyanocephalus baboons were infused with 2-3×10^10 CFU/kg live E. coli (LD100 dose) as described (Taylor F B, Jr., et al., 2000, Blood 95: 1680-1686). The time point at which the infusion was started was indicated as T-0, a time point of n minutes or hours thereafter referred to as T+n minutes (or hours). The Compstatin analog was administered at three different concentrations as an intravenous bolus followed by continuous infusion.
(§2) Complement activity was measured in accordance with known methods. Survival time was also recorded.

human complement = conditions: relative to baboon complement; Sahu et al. 2003; cited from earlier work
primate C3 = primate C3 (Homo sapiens, UniProt P01024); conditions: Janssen et al. 2007; cited from earlier work
Chain of primate C3 (P01024 23-1663): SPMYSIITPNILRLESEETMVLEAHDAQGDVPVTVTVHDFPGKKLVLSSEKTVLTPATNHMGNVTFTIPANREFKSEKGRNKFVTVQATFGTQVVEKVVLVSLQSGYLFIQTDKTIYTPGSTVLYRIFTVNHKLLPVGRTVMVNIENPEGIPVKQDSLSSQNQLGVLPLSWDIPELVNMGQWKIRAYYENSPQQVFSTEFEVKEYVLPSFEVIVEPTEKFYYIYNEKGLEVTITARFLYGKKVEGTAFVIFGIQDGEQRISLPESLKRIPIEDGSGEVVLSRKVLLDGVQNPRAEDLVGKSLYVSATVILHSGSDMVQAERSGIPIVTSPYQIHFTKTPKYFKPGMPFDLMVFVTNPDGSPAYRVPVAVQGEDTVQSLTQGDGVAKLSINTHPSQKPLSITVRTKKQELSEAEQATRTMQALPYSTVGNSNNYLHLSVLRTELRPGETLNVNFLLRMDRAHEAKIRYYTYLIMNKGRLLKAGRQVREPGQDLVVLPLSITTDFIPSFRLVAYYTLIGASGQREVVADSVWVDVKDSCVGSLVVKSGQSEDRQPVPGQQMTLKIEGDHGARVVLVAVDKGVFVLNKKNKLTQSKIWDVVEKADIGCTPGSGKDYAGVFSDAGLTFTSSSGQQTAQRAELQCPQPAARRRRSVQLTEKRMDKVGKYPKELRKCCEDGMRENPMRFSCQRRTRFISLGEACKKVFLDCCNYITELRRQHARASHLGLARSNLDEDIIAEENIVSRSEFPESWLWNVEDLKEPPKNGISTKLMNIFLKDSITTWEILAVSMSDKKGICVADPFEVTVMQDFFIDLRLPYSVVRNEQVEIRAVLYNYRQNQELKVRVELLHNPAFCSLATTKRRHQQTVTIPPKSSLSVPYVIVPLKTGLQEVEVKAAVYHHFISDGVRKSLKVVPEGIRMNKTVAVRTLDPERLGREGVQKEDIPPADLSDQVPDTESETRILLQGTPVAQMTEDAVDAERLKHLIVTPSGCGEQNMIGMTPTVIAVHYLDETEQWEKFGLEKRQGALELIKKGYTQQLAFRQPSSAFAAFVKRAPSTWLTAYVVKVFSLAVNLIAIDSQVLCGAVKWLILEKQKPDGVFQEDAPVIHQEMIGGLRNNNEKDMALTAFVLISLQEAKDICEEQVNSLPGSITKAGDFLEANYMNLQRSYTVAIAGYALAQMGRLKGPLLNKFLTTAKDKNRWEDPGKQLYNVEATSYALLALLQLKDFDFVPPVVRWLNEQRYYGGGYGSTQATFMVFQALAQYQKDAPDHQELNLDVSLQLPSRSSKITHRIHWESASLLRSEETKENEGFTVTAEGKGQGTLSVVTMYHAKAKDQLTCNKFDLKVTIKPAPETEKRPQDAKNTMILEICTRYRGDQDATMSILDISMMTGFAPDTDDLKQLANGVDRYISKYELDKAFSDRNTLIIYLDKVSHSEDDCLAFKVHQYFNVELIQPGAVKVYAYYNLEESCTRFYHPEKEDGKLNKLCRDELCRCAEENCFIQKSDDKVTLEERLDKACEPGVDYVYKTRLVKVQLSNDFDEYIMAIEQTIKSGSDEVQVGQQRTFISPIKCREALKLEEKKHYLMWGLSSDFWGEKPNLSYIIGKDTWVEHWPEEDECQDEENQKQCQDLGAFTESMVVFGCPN

[2] = tested on: baboons infused with live E. coli (LD100 dose); assay: Survival time in LD100 model of E. coli sepsis in baboons; format: in vivo, Papio cyanocephalus; conditions: for Survival Time: no antibiotics
Procedure: as §1, §2

baboon complement = conditions: relative to human complement; Sahu et al. 2003; cited from earlier work
[3] = tested on: baboons infused with live E. coli (LD50 dose); assay: Plasma cytokines multiplex assay, baboon LD50 E. coli sepsis; format: in vivo, Papio cyanocephalus
[4] = tested on: baboons infused with live E. coli (LD50 dose); assay: Immunofluorescence of complement pathway proteins in kidney, baboon LD50 E. coli sepsis; format: in vivo, Papio cyanocephalus
[5] = tested on: baboons infused with live E. coli (LD50 dose); assay: Hematological parameters and cell accumulation in organs, baboon LD50 E. coli sepsis; format: in vivo, Papio cyanocephalus
complement [6] = assay: Complement activation products and complement activity in plasma, baboon LD50 E. coli sepsis; format: in vivo, Papio cyanocephalus
[7] = tested on: baboons infused with live E. coli (LD50 dose); assay: Blood pressure and organ function biochemical tests, baboon LD50 E. coli sepsis; format: in vivo, Papio cyanocephalus
[8] = tested on: baboons infused with live E. coli (LD50 dose); assay: Coagulation tests (fibrinogen, FDP, APTT), baboon LD50 E. coli sepsis; format: in vivo, Papio cyanocephalus
[9] = tested on: baboons infused with live E. coli (LD50 dose); assay: Immunofluorescence and qRT-PCR of hemostatic proteins (PAI-1, TF, TFPI, TM) in lung and liver, baboon LD50 E. coli sepsis; format: in vivo, Papio cyanocephalus; conditions: for PAI1 mRNA in liver: vs non-challenged controls (1±0.6), E. coli alone 22-fold (±9)
[10] = tested on: baboons infused with live E. coli (LD50 dose); assay: Histopathological analysis of organs, baboon LD50 E. coli sepsis; format: in vivo, Papio cyanocephalus
[11] = both preventive and rescue therapy, data not shown
[12] = immunofluorescence MFI of kidney cryosections, T+24, T0 and T+5 treatment, FIG. 2
[13] = kidney immunofluorescence, FIG. 2
[14] = septic baboons, infusion with Compstatin analog
[15] = lung cryosections immunofluorescence, both early and late treatments, FIG. 5A
[16] = histology at 24 hrs vs non-treated group

CC[C@H](C)[C@H](N)C(=O)N[C@H]1CSSC[C@@H](C(=O)N[C@H](C(N)=O)[C@@H](C)O)NC(=O)[C@H](CCCN=C(N)N)NC(=O)[C@H](Cc2cnc[nH]2)NC(=O)[C@H](Cc2cnc[nH]2)NC(=O)CNC(=O)[C@H](Cc2c[nH]c3ccccc23)NC(=O)[C@H](CC(=O)O)NC(=O)[C@H](CCC(N)=O)NC(=O)[C@H](C(C)C)NC(=O)[C@H](C(C)C)NC1=O [Compstatin, Ile-Cys-Val-Val-Gln-Asp-Trp-Gly-His-His-Arg-Cys-Thr]
% Complement Activation at T+120 min (complement [1]; animal 1, bolus 0.33 mg/kg T−0, 1.74 mg/kg T+60, infusion 20 μg/min/kg (8 hrs), total 58 mg): 0.6% | % Complement Activation at T+120 min (complement [1]; animal 2, bolus 1.0 mg/kg T−0, 2.3 mg/kg T+60, infusion 20 μg/min/kg (8 hrs), total 78 mg): 0.5% | % Complement Activation at T+120 min (complement [1]; animal 3, bolus 10 mg/kg T−0, infusion 200 μg/min/kg (8 hrs), total 760 mg): 0.0% | inhibition of complement activation by T+120 minutes (complement [1]; animal receiving the highest concentration): complete inhibition | inhibition of complement activation by T+120 minutes (complement [1]; animals receiving the lesser concentrations): substantial inhibition | inhibition of human complement (human complement): approximately equimolar concentrations | binding to primate C3 (primate C3): specifically binds | Survival Time ([2]; animal 1, bolus 0.33 mg/kg T−0, 1.74 mg/kg T+60, infusion 20 μg/min/kg (8 hrs)): 31.5 h | Survival Time ([2]; animal 2, bolus 1.0 mg/kg T−0, 2.3 mg/kg T+60, infusion 20 μg/min/kg (8 hrs)): 7.0 h | Survival Time ([2]; animal 3, bolus 10 mg/kg T−0, infusion 200 μg/min/kg (8 hrs)): 11.5 h | survival of treated animals ([2]; no antibiotic treatment): died within a few hours | inhibition of baboon complement (baboon complement): approximately equimolar concentrations

Ac-I[CVW(Me)QDWGAHRCT]I-NH2 [Compstatin analog]
effect on plasma cytokines ([3]; 23-plex assay, nine increased by sepsis, except eotaxin and IL-6, data not shown): marginal | plasma IL-6 [3, 11]: reduction | plasma eotaxin [3, 11]: reduction | C3b deposition in the kidney [4, 12]: significantly inhibited | C5b9 deposition in the kidney [4, 12]: significantly inhibited | MBL deposition in the kidney [4, 12]: significantly inhibited | shedding of CD55 from the endothelial surface [4, 13]: protected against shedding | shedding of CD59 from the endothelial surface [4, 13]: protected against shedding | mRNA expression of CD55 and CD59 ([4]; qRT-PCR, data not shown): without significantly affecting | accumulation of macrophages in the lung ([5]; FIG. 3C): lower accumulation | accumulation of platelets in the lung and on the surface of the large vessels ([5]; FIG. 3D-E): lower accumulation | WBC count in blood ([5]; both prevention and rescue regimens, FIG. 3A): faster WBC recovery | platelet count in blood (platelet consumption) ([5]; both prevention and rescue regimens, FIG. 3B): lower plasma platelet consumption | number of neutrophils ([5]; immunostaining for cell specific markers, not shown): without significant changes | CD68 positive macrophages ([5]; immunostaining, lung, FIG. 3C): significant decrease | C5b9 deposition on aggregated platelets ([5]; lung and large vessels, FIG. 3D-E): decreased C5b9 deposition | plasma complement activity (complement [6]; 10 mg/kg iv bolus + 60 μg/kg/min, both preventive (T0 to T+8) and rescue (T+5 to T+11) treatments, FIG. 1A): inhibited | plasma TCC levels (complement [6]; 10 mg/kg iv bolus + 60 μg/kg/min, both preventive (T0 to T+8) and rescue (T+5 to T+11) treatments, FIG. 1B): inhibited | late rise of plasma TCC levels (complement [6]; rescue regimen (T+5 to T+11) compared with prevention group, FIG. 1B): averting the late rise observed in the prevention group | C3a generation (complement [6]; [14]): rapidly inhibited | C3b generation (complement [6]; [14]): rapidly inhibited | creatinine, magnitude of the response ([7]; T+8 and T+24, two treatment groups vs non treated septic animals, FIG. 6B): lower | LDH, magnitude of the response ([7]; T+8 and T+24, two treatment groups vs non treated septic animals, FIG. 6C): lower | ALT, magnitude of the response ([7]; T+8 and T+24, two treatment groups vs non treated septic animals, FIG. 6D): lower | AST, magnitude of the response ([7]; T+8 and T+24, two treatment groups vs non treated septic animals, FIG. 6E): lower | decrease of mean systemic arterial blood pressure ([7]; early treatment (T0 to T+8), FIG. 6A): virtually abolished this decrease | mean systemic arterial blood pressure ([7]; treatment during the second stage (T+5 to T+11), compared with septic untreated baboons, FIG. 6A): higher recovery of the blood pressure in the late phase | fibrinogen levels ([8]; after 24 hours, compared with non-treated animals, FIG. 4A): fully recovered and overshot the initial values | fibrinogen consumption ([8]; first eight hours post-challenge, FIG. 4A): reduced fibrinogen consumption | FDP levels ([8]; treated vs non-treated animals, FIG. 4B): significantly lower | APTT ([8]; treated vs non-treated animals, FIG. 4C): slightly decreased | E. coli induced PAI-1 staining in lung [9, 15]: decreased | E. coli induced TF staining in lung [9, 15]: decreased | TFPI in endothelial cells of lung [9, 15]: protected against sepsis-induced downregulation | TM in endothelial cells of lung [9, 15]: protected against sepsis-induced downregulation | TF expression in the lung ([9]; treated animals): decrease | monocyte/macrophages infiltration in the lung ([9]; treated animals): decrease | PAI1 mRNA in liver ([9]; treated at T0, mean (±SEM 8)): 8 fold | PAI1 mRNA in liver ([9]; treated at T+5, mean (±SEM 0.8)): 4 fold | PAI-1 expression in endothelial cells and macrophages ([9]; treated versus non-treated septic baboons): down-regulated | histopathologic changes of the tissues (graded 0 to 4) ([10]; T+24, two treated groups (T0, T+5) vs E coli challenge group, P<0.001, with the exception of the lung congestion, FIG. 7): significantly less severe | cell death in adrenals and spleen [10, 16]: decreased cell death | hepatocyte vacuolization and liver degeneration [10, 16]: lack of hepatocyte vacuolization and liver degeneration | leukocyte infiltration in the lung, liver adrenals and spleen [10, 16]: less leukocyte infiltration | thrombosis or capillary leak in the lungs [10, 16]: no obvious signs of thrombosis or capillary leak | tubular necrosis and glomerular thrombosis in the kidneys [10, 16]: no or less tubular necrosis and glomerular thrombosis | organ protection by histological analysis ([10]; organs collected after 24 hrs): substantial organ-protection
